System: A2058 cells
Assay: Inhibition assay for phosphatidylinositol 3-kinase (pretreatment with wortmannin or LY294002, alamarBlue viability)
Format: cell-based, human
Details: then compound 10^−5 M for 48 h, from averages of 6 parallels
Protocol: The association of PI3K activation with the antitumor activity of the conjugates was determined by pretreating the cells with PI3K inhibitors (wortmannin – W and LY294002 – LY). The antitumor effect of the conjugates and Dau on the cells pretreated with PI3K inhibitors or with DMSO (solvent of the inhibitors) was assessed by an alamarBlue-assay after 48 h of incubation. The results of the PI3K-assay were given by calculating the inhibition index as the ratio of the viability of the pretreated and control (DMSO-treated) cell populations being incubated with medium or conjugates (10^−5 M). […]
was measured with LS-50B Luminescence Spectrometer (Perkin Elmer Ltd., Buckinghamshire United Kingdom) by using λ = 560 nm for excitation and λ = 590 nm for detection of the emitted light.
Each data represents the mathematical average of six parallels. The decrease in the fluorescence intensity caused by the different treatments was normalized to the identical control and this value was given as ‘Viability’ in percent. […]
A2058 cells were prepared in 96-well plates as it was aforementioned in ‘Cell proliferation and cytotoxicity measurement’ section. […] The number of viable cells was determined by the alamarBlue-assay as it was described in ‘Cell proliferation and cytotoxicity measurement’ chapter. To analyze the effects of inhibitors on the actions of conjugates, the inhibition index was calculated by […]

## COc1cccc2c1C(=O)c1c(O)c3c(c(O)c1C2=O)C[C@@](O)(C(C)=O)C[C@@H]3O[C@H]1C[C@H](N)[C@H](O)[C@H](C)O1 [daunorubicin]
A2058 cells pretreated 30 min with LY294002 (15 μM)
  inhibition index, LY294002: 100.7 ± 4.0%
A2058 cells pretreated 30 min with wortmannin (50 nM)
  inhibition index, wortmannin: 121.0 ± 8.1%
